Patent US6555532B1, “Method of treating alopecia” (North Carolina State University, priority 1996, dated 2003)

Tests used:
[1] = system: hair growth on clipped dorsal skin of female CD-1 mice; experiment: Hair regrowth on clipped dorsal skin of mice after twice-weekly topical treatment; format: in vivo, mouse; details: for effect on hair growth (figure legend): 10 nmol in 200 μL acetone applied topically to clipped hair area, mice; for mice demonstrating partial patchy hair regrowth: 10 nmol topically twice weekly from 6th week; for hair growth in pre-existing anagen follicles: 10 week old mice in anagen phase, twice weekly topical
Experimental: Female CD-1 mice, 4, 5, or 9 weeks of age, were purchased from Charles River Laboratories, Raleigh, N.C. Mice were kept in an animal facility at least 1 week prior to use and were fed rodent chow (Agway Food, Granville Milling and Co., Creedmoor, N.C.) and water ad libitum. The mice were kept on corn cob bedding and placed on a 12 hour light/dark cycle. Female CD-1 mice were clipped on the dorsal region (approximately 4×2.5 cm area) with electric clippers. The mice were then treated twice weekly on the clipped dorsal surface with either (a) 10 nmol 17-β-estradiol in 200 μl acetone or (b) acetone alone. For the studies with the estrogen receptor antagonist, ICI 182,780 was dissolved in acetone and 200 μl was topically applied twice weekly. Mice were treated with the estrogen receptor antagonist ICI 182,780 as provided in Example 1. Twice-weekly treatment of clipped dorsal skin was begun when the mice were 6 weeks of age, with either (a) 10 nmol ICI 182,780 in acetone or (b) acetone alone. […] In order to determine if 17-β-estradiol could influence hair growth, six week old CD-1 female mice were clipped on the dorsal surface with electric clippers and then treated twice weekly from the 6th week of age to the 16th week of age with topical applications of either (a) 10 nmol 17-β-estradiol or (b) acetone vehicle alone. […] In order to determine if 17-β-estradiol could block hair growth in pre-existing anagen follicles, 10 week old mice in the anagen phase of the hair cycle were treated twice weekly with 17-β-estradiol applied topically to clipped dorsal skin.

[2] = system: hair follicles of female CD-1 mice; experiment: Histological analysis of skin to determine the phase of the hair cycle; format: in vivo, mouse
Experimental: Female CD-1 mice, 4, 5, or 9 weeks of age, were purchased from Charles River Laboratories, Raleigh, N.C. Mice were kept in an animal facility at least 1 week prior to use and were fed rodent chow (Agway Food, Granville Milling and Co., Creedmoor, N.C.) and water ad libitum. The mice were kept on corn cob bedding and placed on a 12 hour light/dark cycle. Female CD-1 mice were clipped on the dorsal region (approximately 4×2.5 cm area) with electric clippers. The mice were then treated twice weekly on the clipped dorsal surface with either (a) 10 nmol 17-β-estradiol in 200 μl acetone or (b) acetone alone. For the studies with the estrogen receptor antagonist, ICI 182,780 was dissolved in acetone and 200 μl was topically applied twice weekly. […] To determine the effect of 17-β-estradiol on the hair follicle cycle, mice were treated with 17-β-estradiol or acetone alone twice weekly from the 4th week of age to the 15th week of age. Every week, histological analysis of the skin from 3 mice from each group was conducted to determine the phase of the hair cycle. Representative skin histology sections from acetone- and 17-β-estradiol-treated mice at 7, 9, and 11 weeks of age are shown in FIGS. 6A-6F. As expected, at 7 weeks of age all follicles were in telogen in both the 17-β-estradiol and the acetone-treated mice.

Compound	effect on hair growth (figure legend) [1]	mice demonstrating full hair regrowth ([1]; 10 nmol in acetone topically twice weekly from 6 weeks of age, by 9 weeks of age, no hair growth in acetone-treated mice)	mice that developed a full coat of hair ([1]; 10 nmol in acetone topically twice weekly from 6 weeks of age, by 10 weeks of age, 40% of acetone-treated mice)	hair follicle phase ([2]; 10 nmol ICI 182,780 twice weekly from 6 weeks, at 7 weeks of age, acetone mice in second telogen)	hair follicle phase ([2]; 10 nmol ICI 182,780 twice weekly from 6 weeks, at eleven weeks of age, control mice in mid to late anagen)	hair follicle phase ([2]; 10 nmol ICI 182,780 twice weekly from 6 weeks, by eight weeks of age, acetone mice in telogen)	effect on duration of anagen ([2]; conclusion from histology at eleven weeks of age)	effect on dorsal hair regrowth ([1]; 10 nmol topically twice weekly from 6th to 16th week of age)	full hair regrowth ([1]; 10 nmol topically twice weekly from 6th to 16th week of age, by 16 weeks of age, 100% of acetone mice regrown by 13 weeks)	partial patchy hair regrowth, share of total clipped area ([1]; 10 nmol topically twice weekly from 6th to 16th week of age, some of the treated mice)	mice demonstrating partial patchy hair regrowth ([1]; at 12 weeks of age)	mice demonstrating partial patchy hair regrowth ([1]; by 15 weeks)	hair growth in pre-existing anagen follicles ([1]; treatment continued for 10 weeks)	hair growth in pre-existing anagen follicles ([1]; within two weeks, all acetone mice developed full coat)	hair follicle phase ([2]; 17-β-estradiol twice weekly from 4th week of age, 15 weeks of age, termination of experiment)	hair follicle phase ([2]; 17-β-estradiol twice weekly from 4th week of age, at 7 weeks of age, acetone mice also in telogen)	hair follicle phase ([2]; 17-β-estradiol twice weekly from 4th week of age, by 9 weeks of age, acetone mice entered anagen)	hair follicle phase ([2]; 17-β-estradiol twice weekly from 4th week of age, by 11 weeks of age, acetone mice in mid to late anagen)
C[C@]12CC[C@@H]3c4ccc(O)cc4C[C@@H](CCCCCCCCC[S+]([O-])CCCC(F)(F)C(F)(F)F)[C@H]3[C@@H]1CC[C@@H]2O (stereo partly drawn) [ICI 182,780, 7α-[9-(4,4,5,5,5,-pentafluoropentylsulfinyl)nonyl]estra-1,3,5(10)-triene-3,17β-diol]	causes hair growth during the second telogen phase	60%	all	early to mid anagen	entered telogen	mid to late anagen	does not prolong anagen											
C[C@]12CC[C@@H]3c4ccc(O)cc4CC[C@H]3[C@@H]1CC[C@@H]2O [17-β-estradiol]	blocks hair regrowth							potent inhibitory effect	did not demonstrate any full hair regrowth	less than 10%	20%	40%	no hair growth was apparent	no longer growing hair	still arrested in telogen	telogen	remained in telogen	remained in telogen
